Reference: ChEMBL document CHEMBL1141575, “Preparation and in vitro biological evaluation of tetrapyrrole ethanolamide derivatives as potential anticancer agents” (Bioorg Med Chem Lett, 2008)

What was measured:
[1] = Survival of human MDA-MB cells at 100 uM under deem light after 96 hrs by MTT assay relative to control; type: functional; settings: read-out: Survival
K562 [2] = assay: Survival of human K562 cells at 100 uM under deem light after 96 hrs by MTT assay relative to control; type: functional; settings: K562, 96 h, read-out: Survival
[3] = Photohemolysis in human RBC assessed as concentration required to 50% hemolysis under light exposure for 10 mins; type: ADME, cell-based, Erythrocyte; settings: human red blood cells, read-out: Activity
Raji [4] = assay: Survival of human Raji cells at 1 uM under deem light after 96 hrs by MTT assay relative to control; type: functional; settings: read-out: Survival
Daudi = assay: Cytotoxicity against human Daudi cells under deem light after 96 hrs by MTT assay; type: functional, cell-based
[5] = Survival of human 2780.9S cells at 50 uM under deem light after 96 hrs by MTT assay relative to control; type: functional; settings: read-out: Survival
[6] = Survival of human 2780.9S cells at 100 uM under deem light after 96 hrs by MTT assay relative to control; type: functional; settings: read-out: Survival
[7] = Survival of human MDA-MB cells at 0.1 uM under deem light after 96 hrs by MTT assay relative to control; type: functional; settings: read-out: Survival
NCI-H69 [8] = assay: Survival of human H69 cells at 100 uM under deem light after 96 hrs by MTT assay relative to control; type: functional; settings: NCI-H69, 96 h, read-out: Survival
[9] = Survival of human H209 cells at 0.1 uM under deem light after 96 hrs by MTT assay relative to control; type: functional; settings: NCI-H209, 96 h, read-out: Survival
[10] = Survival of human H209 cells at 15.7 uM under deem light after 96 hrs by MTT assay relative to control; type: functional; settings: NCI-H209, 96 h, read-out: Survival
Raji [11] = assay: Survival of human Raji cells at 50 uM under deem light after 96 hrs by MTT assay relative to control; type: functional; settings: read-out: Survival
HeLa [12] = assay: Cytotoxicity against human HeLa cells under deem light after 96 hrs by MTT assay; type: functional, cell-based
NCI-H69 [13] = assay: Survival of human H69 cells at 1 uM under deem light after 96 hrs by MTT assay relative to control; type: functional; settings: NCI-H69, 96 h, read-out: Survival
[14] = Cytotoxicity against human 2780.9S cells under deem light after 96 hrs by MTT assay; type: functional, cell-based
NCI-H69 [15] = assay: Cytotoxicity against human H69 cells under deem light after 96 hrs by MTT assay; type: functional, cell-based; settings: NCI-H69, 96 h
HeLa [16] = assay: Survival of human HeLa cells at 15.7 uM under deem light after 96 hrs by MTT assay relative to control; type: functional; settings: read-out: Survival
SiHa [17] = assay: Cytotoxicity against human SIHA cells under deem light after 96 hrs by MTT assay; type: functional, cell-based
Raji [18] = assay: Survival of human Raji cells at 0.1 uM under deem light after 96 hrs by MTT assay relative to control; type: functional; settings: read-out: Survival
[19] = Survival of human H209 cells at 1 uM under deem light after 96 hrs by MTT assay relative to control; type: functional; settings: NCI-H209, 96 h, read-out: Survival
[20] = Survival of human 2780.9S cells at 0.1 uM under deem light after 96 hrs by MTT assay relative to control; type: functional; settings: read-out: Survival
[21] = Photohemolysis in human RBC in absence of light; type: ADME, cell-based; settings: erythrocyte
SiHa [22] = assay: Survival of human SIHA cells at 50 uM under deem light after 96 hrs by MTT assay relative to control; type: functional; settings: read-out: Survival
SiHa [23] = assay: Survival of human SIHA cells at 1 uM under deem light after 96 hrs by MTT assay relative to control; type: functional; settings: read-out: Survival
NCI-H69 [24] = assay: Survival of human H69 cells at 0.1 uM under deem light after 96 hrs by MTT assay relative to control; type: functional; settings: NCI-H69, 96 h, read-out: Survival
[25] = Photohemolysis in human RBC assessed as concentration required to 50% hemolysis under light exposure for 5 mins; type: ADME, cell-based, Erythrocyte; settings: human red blood cells, read-out: Activity
SiHa [26] = assay: Survival of human SIHA cells at 100 uM under deem light after 96 hrs by MTT assay relative to control; type: functional; settings: read-out: Survival
[27] = Survival of human MDA-MB cells at 10 uM under deem light after 96 hrs by MTT assay relative to control; type: functional; settings: read-out: Survival
HeLa [28] = assay: Survival of human HeLa cells at 1 uM under deem light after 96 hrs by MTT assay relative to control; type: functional; settings: read-out: Survival
[29] = Survival of human 2780.9S cells at 15.7 uM under deem light after 96 hrs by MTT assay relative to control; type: functional; settings: read-out: Survival
HeLa [30] = assay: Survival of human HeLa cells at 50 uM under deem light after 96 hrs by MTT assay relative to control; type: functional; settings: read-out: Survival
[31] = Survival of human MDA-MB cells at 15.7 uM under deem light after 96 hrs by MTT assay relative to control; type: functional; settings: read-out: Survival
[32] = Survival of human MDA-MB cells at 1 uM under deem light after 96 hrs by MTT assay relative to control; type: functional; settings: read-out: Survival
[33] = Photohemolysis in human RBC at 125 nM under exposure to light for 10 mins; type: ADME, cell-based, Erythrocyte; settings: human red blood cells, read-out: Activity
K562 [34] = assay: Cytotoxicity against human K562 cells under deem light after 96 hrs by MTT assay; type: functional, cell-based; settings: K562, 96 h
K562 [35] = assay: Survival of human K562 cells at 15.7 uM under deem light after 96 hrs by MTT assay relative to control; type: functional; settings: K562, 96 h, read-out: Survival
K562 [36] = assay: Survival of human K562 cells at 50 uM under deem light after 96 hrs by MTT assay relative to control; type: functional; settings: K562, 96 h, read-out: Survival
K562 [37] = assay: Survival of human K562 cells at 0.1 uM under deem light after 96 hrs by MTT assay relative to control; type: functional; settings: K562, 96 h, read-out: Survival
Raji [38] = assay: Survival of human Raji cells at 15.7 uM under deem light after 96 hrs by MTT assay relative to control; type: functional; settings: read-out: Survival
HeLa [39] = assay: Survival of human HeLa cells at 100 uM under deem light after 96 hrs by MTT assay relative to control; type: functional; settings: read-out: Survival
[40] = Survival of human MDA-MB cells at 50 uM under deem light after 96 hrs by MTT assay relative to control; type: functional; settings: read-out: Survival
Raji [41] = assay: Cytotoxicity against human Raji cells under deem light after 96 hrs by MTT assay; type: functional, cell-based
[42] = Survival of human 2780.9S cells at 1 uM under deem light after 96 hrs by MTT assay relative to control; type: functional; settings: read-out: Survival
[43] = Survival of human H209 cells at 100 uM under deem light after 96 hrs by MTT assay relative to control; type: functional; settings: NCI-H209, 96 h, read-out: Survival
NCI-H69 [44] = assay: Survival of human H69 cells at 15.7 uM under deem light after 96 hrs by MTT assay relative to control; type: functional; settings: NCI-H69, 96 h, read-out: Survival
NCI-H69 [45] = assay: Survival of human H69 cells at 50 uM under deem light after 96 hrs by MTT assay relative to control; type: functional; settings: NCI-H69, 96 h, read-out: Survival
Raji [46] = assay: Survival of human Raji cells at 100 uM under deem light after 96 hrs by MTT assay relative to control; type: functional; settings: read-out: Survival
HeLa [47] = assay: Survival of human HeLa cells at 0.1 uM under deem light after 96 hrs by MTT assay relative to control; type: functional; settings: read-out: Survival
[48] = Cytotoxicity against human MDA-MB cells under deem light after 96 hrs by MTT assay; type: functional, cell-based
[49] = Survival of human H209 cells at 50 uM under deem light after 96 hrs by MTT assay relative to control; type: functional; settings: NCI-H209, 96 h, read-out: Survival
K562 [50] = assay: Survival of human K562 cells at 1 uM under deem light after 96 hrs by MTT assay relative to control; type: functional; settings: K562, 96 h, read-out: Survival

**Q.** Which results are given for CCCOC(C)C1=C(C)c2cc3[nH]c(cc4nc(cc5[nH]c(cc1n2)c(C)c5CCC(=O)NCCO)C(CCC(=O)NCCO)=C4C)c(C)c3C(C)OCCC (stereo unspecified) [HEMATOPORPHYRIN PROPYLETHER ETHANOLAMIDE]?
**A.** viability at 100 µM [1]: 5.2%; viability at 100 µM (K562 [2]): 6.67%; HC50 at 10 min [3]: 210 nM; viability at 1 µM (Raji [4]): 99.5%; IC50 (Daudi): 22 µM; viability at 50 µM [5]: 12.3%; viability at 100 µM [6]: 6.5%; viability at 0.1 µM [7]: 137%; viability at 100 µM (NCI-H69 [8]): 14.4%; viability at 0.1 µM [9]: 97.8%; viability at 15.7 µM [10]: 16.1%; viability at 50 µM (Raji [11]): 5.9%; IC50 (HeLa [12]): 21 µM; viability at 1 µM (NCI-H69 [13]): 97%; IC50 [14]: 16 µM; IC50 (NCI-H69 [15]): 22 µM; viability at 15.7 µM (HeLa [16]): 7.8%; IC50 (SiHa [17]): 44 µM; viability at 0.1 µM (Raji [18]): 96.1%; viability at 1 µM [19]: 105%; viability at 0.1 µM [20]: 106%; Activity [21]: Non-toxic; viability at 50 µM (SiHa [22]): 2.2%; viability at 1 µM (SiHa [23]): 100%; viability at 0.1 µM (NCI-H69 [24]): 95.5%; HC50 at 5 min [25]: 90 nM; viability at 100 µM (SiHa [26]): 6.7%; viability at 10 µM [27]: 104%; viability at 1 µM (HeLa [28]): 119%; viability at 15.7 µM [29]: 19.3%; viability at 50 µM (HeLa [30]): 7.4%; viability at 15.7 µM [31]: 24.3%; viability at 1 µM [32]: 112%; hemolysis at 10 min, 0.125 µM [33]: 100%; IC50 (K562 [34]): 22 µM; viability at 15.7 µM (K562 [35]): 28.5%; viability at 50 µM (K562 [36]): 5.7%; viability at 0.1 µM (K562 [37]): 72.9%; viability at 15.7 µM (Raji [38]): 23.6%; viability at 100 µM (HeLa [39]): 10.5%; viability at 50 µM [40]: 7.4%; IC50 (Raji [41]): 21 µM; viability at 1 µM [42]: 100%; viability at 100 µM [43]: 9.8%; viability at 15.7 µM (NCI-H69 [44]): 17.1%; viability at 50 µM (NCI-H69 [45]): 16.1%; viability at 100 µM (Raji [46]): 5.4%; viability at 0.1 µM (HeLa [47]): 99.6%; IC50 [48]: 12 µM; viability at 50 µM [49]: 8.6%; viability at 1 µM (K562 [50]): 84.7%
